What follows are compounds tested on EGFR (del19/T790M/C797S) (assay: HTRF inhibitory activity assay against EGFR (del19/T790M/C797S) enzyme).
Format: biochemical
Procedure: Inhibitory Activity Assay of the Compounds Disclosed Herein Against EGFR (del19/T790M/C797S), EGFR (L858R/T790M/C797S) or EGFR (WT) Enzymes
The inhibitory effects of the compounds against EGFR (del19/T790M/C797S), EGFR (L858R/T790M/C797S) or EGFR (WT) enzyme activity was determined by using HTRF. The procedures are as follows:
The WT or mutant EGFR proteins were incubated with a serially diluted compounds at 28° C. for 10 min followed by addition of biotin-labeled general tyrosine kinase (TK) substrate and ATP. The mixture was incubated at room temperature for 40 min for reaction. After the termination of the reaction, an Eu3+-Cryptate-labeled antibody against TK and streptavidin-XL665 were added and the mixture was incubated at room temperature for 60 min. The luminescences at 615 nm and 665 nm were detected and the ratio of 665/615 was calculated to quantify the level of TK substrate phosphorylation. Inhibition % and IC50 of the compounds were calculated relative to the control group.

| SMILES | EGFR (del19/T790M/C797S) inhibition (%) (0.3 nM compound) |
| --- | --- |
| CN1CCN(C2CCN(c3ccc(Nc4nc(N[C@H]5CC[C@@H](O)C5)c(-c5ccccc5)nc4C(N)=O)cc3)CC2)CC1 [compound 139, 5-(((1S,3R)-3-hydroxycyclopentyl)amino)-3-((4-(4-(4-methylpiperazin-1-yl)piperidin-1-yl)phenyl)amino)-6-phenylpyrazine-2-carboxamide] | ++ (++ indicates an inhibition from 20% to 50%) |
| CN1CCN(C2CCN(c3ccc(Nc4nc(NC5CCOCC5)c(-c5cccc(N)c5)nc4C(N)=O)cc3)CC2)CC1 [compound 92] | ++ (++ indicates an inhibition from 20% to 50%) |
| CN1CCN(C2CCN(c3ccc(Nc4nc(NC5CCOCC5)c(-c5ccnn5C)nc4C(N)=O)cc3)CC2)CC1 [compound 50] | + (+ indicates an inhibition less than or equal to 20%) |
| CN1CCN(C2CCN(c3ccc(Nc4nc(NC5CCOCC5)c(-c5ccc(N)cc5)nc4C(N)=O)cc3)CC2)CC1 [compound 95] | ++ (++ indicates an inhibition from 20% to 50%) |
| CN1CCN(C2CCN(c3ccc(Nc4nc(NC5CCOCC5)c(-c5cccc(C(F)F)c5)nc4C(N)=O)cc3)CC2)CC1 [compound 105] | + (+ indicates an inhibition less than or equal to 20%) |
| CN1CCN(C2CCN(c3ccc(Nc4nc(NC5CC6(COC6)C5)c(-c5ccnc6[nH]ccc56)nc4C(N)=O)cc3)CC2)CC1 [compound 629] | +++ (+++ indicates an inhibition greater than 50%.) |
| CN1CCN(C2CCN(c3ccc(Nc4nc(NC5CCOCC5)c(-c5cccc(Cl)c5)nc4C(N)=O)cc3)CC2)CC1 [compound 61] | ++ (++ indicates an inhibition from 20% to 50%) |
| CN(C)CCCNc1nc(Nc2ccc(N3CCC(N4CCN(C)CC4)CC3)cc2)c(C(N)=O)nc1-c1ccccc1 [compound 117] | + (+ indicates an inhibition less than or equal to 20%) |
| CN1CCN(C2CCN(c3ccc(Nc4nc(NC5CC6(CCOCC6)C5)c(-c5ccccn5)nc4C(N)=O)cc3)CC2)CC1 [compound 271] | ++ (++ indicates an inhibition from 20% to 50%) |
| CN1CCN(C2CCN(c3ccc(Nc4nc(N[C@@H]5CCOC5)c(-c5ccncc5)nc4C(N)=O)cc3F)CC2)CC1 [compound 643] | +++ (+++ indicates an inhibition greater than 50%.) |
| CN1CCN(C2CCN(c3ccc(Nc4nc(NC5CC5)c(-c5ccnc6[nH]ccc56)nc4C(N)=O)cc3)CC2)CC1 [compound 610] | +++ (+++ indicates an inhibition greater than 50%.) |
| CN1CCN(C2CCN(c3ccc(Nc4nc(NC5CCOCC5)c(-c5ccc(C(F)F)cc5)nc4C(N)=O)cc3)CC2)CC1 [compound 101] | + (+ indicates an inhibition less than or equal to 20%) |
| CN1CCN(C2CCN(c3ccc(Nc4nc(N[C@@H]5CCOC5)c(-c5ccncc5)nc4C(N)=O)cc3)CC2)CC1 [compound 642] | +++ (+++ indicates an inhibition greater than 50%.) |
| CN1CCN(C2CCN(c3ccc(Nc4nc(O[C@H]5CCOC5)c(-c5ccccc5)nc4C(N)=O)cc3)CC2)CC1 [compound 18] | + (+ indicates an inhibition less than or equal to 20%) |
| CN1CCN(C2CCN(c3ccc(Nc4nc(NC5CC5)c(-c5cc[nH]n5)nc4C(N)=O)cc3)CC2)CC1 [compound 625] | +++ (+++ indicates an inhibition greater than 50%.) |
| CN1CCN(C2CCN(c3ccc(Nc4nc(N5CCC(O)C5)c(-c5ccccc5)nc4C(N)=O)cc3)CC2)CC1 (stereo not drawn) [compound 29] | ++ (++ indicates an inhibition from 20% to 50%) |
| CN1CCN(C2CCN(c3ccc(Nc4nc(NC5CCOCC5)c(-c5cnn(C)c5)nc4C(N)=O)cc3)CC2)CC1 [compound 40] | + (+ indicates an inhibition less than or equal to 20%) |
| CN1CCN(C2CCN(c3ccc(Nc4nc(N[C@H]5C[C@H](O)C5)c(-c5cccc6[nH]ccc56)nc4C(N)=O)cc3F)CC2)CC1 [compound 534] | +++ (+++ indicates an inhibition greater than 50%.) |
| CN1CCN(C2CCN(c3ccc(Nc4nc(NC5CCOCC5)c(C5=CCNCC5)nc4C(N)=O)cc3)CC2)CC1 [compound 109] | + (+ indicates an inhibition less than or equal to 20%) |
| COc1cc(N2CCC(N3CCN(C)CC3)CC2)ccc1Nc1nc(NC2CCOCC2)c(-c2ccccc2)nc1C(N)=O [compound 113] | + (+ indicates an inhibition less than or equal to 20%) |
| Cc1cc(Nc2nc(NC3CCOCC3)c(-c3ccncc3)nc2C(N)=O)ccc1N1CCC(N2CCN(C3CC3)CC2)CC1 [compound 146] | ++ (++ indicates an inhibition from 20% to 50%) |

| SMILES | EGFR (del19/T790M/C797S) inhibition (%) (0.3 nM compound) |
| --- | --- |
| CN1CCN(C2CCN(c3ccc(Nc4nc(NC5CCOCC5)c(-c5cncnc5)nc4C(N)=O)cc3)CC2)CC1 [compound 72] | + (+ indicates an inhibition less than or equal to 20%) |
| CN1CC=C(c2nc(C(N)=O)c(Nc3ccc(N4CCC(N5CCN(C)CC5)CC4)cc3)nc2NC2CCOCC2)CC1 [compound 102] | + (+ indicates an inhibition less than or equal to 20%) |
| CN1CCN(C2CCN(c3ccc(Nc4nc(NC5CCOCC5)c(-c5cc[nH]n5)nc4C(N)=O)cc3F)CC2)CC1 [compound 619] | ++ (++ indicates an inhibition from 20% to 50%) |
| CN1CCN(c2ccc(Nc3nc(NC4CCOCC4)c(-c4ccccc4C(N)=O)nc3C(N)=O)cc2)CC1 [compound 36] | + (+ indicates an inhibition less than or equal to 20%) |
| CN1CCN(C2CCN(c3ccc(Nc4nc(NC5CCC(O)C5)c(-c5cc[nH]n5)nc4C(N)=O)cc3F)CC2)CC1 (stereo not drawn) [compound 623] | +++ (+++ indicates an inhibition greater than 50%.) |
| NC(=O)c1nc(-c2ccccn2)c(NC2CCOC3(CC3)C2)nc1Nc1ccc(N2CCC(N3CCN(C4CC4)CC3)CC2)cc1 (stereo not drawn) [compound 264] | ++ (++ indicates an inhibition from 20% to 50%) |
| COc1cccc(-c2nc(C(N)=O)c(Nc3ccc(N4CCC(N5CCN(C)CC5)CC4)cc3)nc2NC2CCOCC2)c1 [compound 51] | + (+ indicates an inhibition less than or equal to 20%) |
| CN1CCN(C2CCN(c3ccc(Nc4nc(NC5CCOCC5)c(-c5ccccc5O)nc4C(N)=O)cc3)CC2)CC1 [compound 99] | + (+ indicates an inhibition less than or equal to 20%) |
| CN1CCN(C2CCN(c3ccc(Nc4nc(NC5CCOCC5)c(-c5ccnc6[nH]ccc56)nc4C(N)=O)cc3F)CC2)CC1 [compound 520] | +++ (+++ indicates an inhibition greater than 50%.) |
| CN1CCN(C2CCN(c3ccc(Nc4nc(NC5CCOCC5)c(-c5ccoc5)nc4C(N)=O)cc3)CC2)CC1 [compound 91] | ++ (++ indicates an inhibition from 20% to 50%) |
| CN1CCN(C2CCN(c3ccc(Nc4nc(NC5CCOCC5)c(-c5cccc(NS(C)(=O)=O)c5)nc4C(N)=O)cc3)CC2)CC1 [compound 90] | + (+ indicates an inhibition less than or equal to 20%) |
| [2H]C([2H])([2H])N1CCN(C2CCN(c3ccc(Nc4nc(NC5CCOCC5)c(-c5ccccn5)nc4C(N)=O)cc3)CC2)CC1 [compound 206] | ++ (++ indicates an inhibition from 20% to 50%) |
| CN1CCN(C2CCN(c3ccc(Nc4nc(NC5CCOCC5)c(-c5ccn(C)n5)nc4C(N)=O)cc3)CC2)CC1 [compound 49] | + (+ indicates an inhibition less than or equal to 20%) |
| CN1CCN(C2CCN(c3ccc(Nc4nc(NC5CC6(COC6)C5)c(-c5cc[nH]n5)nc4C(N)=O)cc3)CC2)CC1 [compound 627] | ++ (++ indicates an inhibition from 20% to 50%) |
| CN1CCN(C2CCN(c3ccc(Nc4nc(N[C@H]5CCOC5)c(-c5ccccc5)nc4C(N)=O)cc3)CC2)CC1 [compound 70] | + (+ indicates an inhibition less than or equal to 20%) |
| CN1CCN(C2CCN(c3ccc(Nc4nc(NC5CCOCC5)c(-c5ccn(C)c(=O)c5)nc4C(N)=O)cc3)CC2)CC1 [compound 106] | + (+ indicates an inhibition less than or equal to 20%) |
| CN1CCN(C2CCN(c3ccc(Nc4nc(N[C@@H]5CCOC5)c(-c5ccccc5)nc4C(N)=O)cc3)CC2)CC1 [compound 66] | + (+ indicates an inhibition less than or equal to 20%) |
| CN1CCN(C2CCN(c3ccc(Nc4nc(NC5CCOCC56CC6)c(-c5ccccn5)nc4C(N)=O)cc3)CC2)CC1 (stereo not drawn) [compound 255] | ++ (++ indicates an inhibition from 20% to 50%) |
| CN1CCN(C2CCN(c3ccc(Nc4nc(NC5COC5)c(-c5ccnc6[nH]ccc56)nc4C(N)=O)cc3)CC2)CC1 [compound 596] | +++ (+++ indicates an inhibition greater than 50%.) |
| CN1CCN(C2CCN(c3ccc(Nc4nc(NC5CC5)c(-c5ccncc5)nc4C(N)=O)cc3)CC2)CC1 [compound 631] | +++ (+++ indicates an inhibition greater than 50%.) |
| CN1CCN(C2CCN(c3ccc(Nc4nc(OC5CCOCC5)c(-c5ccccc5)nc4C(N)=O)cc3)CC2)CC1 [compound 12] | + (+ indicates an inhibition less than or equal to 20%) |

From patent US12600714B2, “Substituted pyrazinecarboxamide compounds for treating diseases related to EGFR mutation” (WIGEN BIOMEDICINE TECHNOLOGY (SHANGHAI) CO., LTD., priority 2020, dated 2026)
